ChEMBL document CHEMBL1201862, “PubChem BioAssay data set” (2004)
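Protocol summary: plate cells (96-well), add compound at 5 concentrations, incubate 48 h, interpolate endpoints linearly. GI50 marks 50% less growth.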 The source made the active and inactive calls. Cut-off read from the data, not from the text of the source: active = GI50 up to about 1.1 µM and inactive = higher.

Key:
Assay in all cases: NCI-60 cell line screen, 48 h
[1] = system: DU-145
[2] = system: Hs-578T
[3] = system: XF498
[4] = system: DMS-114
[5] = system: SNB-78
[6] = system: DMS-273
[7] = system: DLD-1
[8] = system: RXF 631
[9] = system: KM-20L2

| Structure (SMILES) | GI50 [1] | GI50 [2] | GI50 [3] | GI50 [4] | GI50 [5] | GI50 [6] | GI50 [7] | GI50 [8] | GI50 [9] |
| --- | --- | --- | --- | --- | --- | --- | --- | --- | --- |
| Cc1cc(C)n(C(=O)CSc2nnc(SCC(=O)n3nc(C)cc3C)s2)n1 | > 100 µM (inactive) | 33.8 µM (inactive) | – | – | – | – | – | – | – |
| C#CCn1c(=O)c(C#N)c(O)c2cc3ccccc3nc21 | – | – | > 100 µM (inactive) | > 100 µM (inactive) | > 100 µM (inactive) | > 100 µM (inactive) | > 100 µM (inactive) | – | – |
| COc1c2c(c(O)c3c4c(c(C)cc13)C1OC3(C(OC)OC5CC(C)(O)C(OC6CC(C)(O)C(O)C(C)O6)C(C)O5)OC1C(OC)(O4)C31CO1)C(=O)C(O)CC2OC1CC(C)(O)C(OC(C)=O)C(C)O1 (stereo unspecified) | – | – | < 0.01 µM (active) | < 0.01 µM (active) | < 0.01 µM (active) | < 0.01 µM (active) | 0.01 µM (active) | < 0.01 µM (active) | < 0.01 µM (active) |
| COC(=O)C1=C(C(=O)OC)C2OC1C1C2C2(C)C(C)=C(C)C1(C)[S+]2[O-] (stereo unspecified) | 6.62 µM (inactive) | 20.8 µM (inactive) | – | – | – | – | – | – | – |
| CSC(=N)NNC(=O)CCC(=O)Nc1ccccc1C(F)(F)F | – | – | – | > 100 µM (inactive) | > 61.5 µM (inactive) | > 100 µM (inactive) | > 100 µM (inactive) | – | > 44.7 µM (inactive) |
| CC(=O)OCCCCn1cnc2nc(Nc3ccccc3)nc(Cl)c21 | – | 36.2 µM (inactive) | – | – | – | – | – | – | – |
| C(/C=N/c1ccccc1)=C(/Nc1ccccc1)C12CC3CC(CC(C3)C1)C2 | 19.3 µM (inactive) | 37.5 µM (inactive) | – | – | – | – | – | – | – |
| CCN(CC)CC(=N)N(CC)c1ccccc1 | – | – | > 100 µM (inactive) | > 100 µM (inactive) | > 100 µM (inactive) | – | > 100 µM (inactive) | – | > 100 µM (inactive) |
| CCC(=O)C(c1ccccc1)c1ccccn1 (stereo unspecified) | > 100 µM (inactive) | > 100 µM (inactive) | – | – | – | – | – | – | – |
| O=C(Nc1cc(Cl)c(Cl)cc1Cl)C(=O)C1C=CCS1(=O)=O (stereo unspecified) | – | – | – | > 100 µM (inactive) | 11.2 µM (inactive) | > 100 µM (inactive) | > 100 µM (inactive) | – | > 100 µM (inactive) |
| OCCOCn1nc(-c2ccccc2)nc1-c1cnccn1 | > 100 µM (inactive) | – | – | – | – | – | – | – | – |
| CCCn1c(C23CC4CC(CC(C4)C2)C3)nc2ccc(Cl)cc2c1=O | 27.9 µM (inactive) | 63.2 µM (inactive) | – | – | – | – | – | – | – |
| O=C1NC(c2cccc3ccccc23)Nc2ccc(O)cc21 (stereo unspecified) | – | – | 24.7 µM (inactive) | 7.35 µM (inactive) | 40.3 µM (inactive) | 10.4 µM (inactive) | 33.5 µM (inactive) | – | 40.3 µM (inactive) |
| CCN1CCC(O)(/C=C/c2ccccc2C)C(C(=O)/C=C/c2ccccc2C)C1 (stereo unspecified) | 1.79 µM (inactive) | 3.76 µM (inactive) | – | – | – | – | – | – | – |
| O=Cc1ccc(CCl)cc1 | – | – | 20 µM (inactive) | 6.93 µM (inactive) | 16.5 µM (inactive) | 19.8 µM (inactive) | 16.1 µM (inactive) | 3.16 µM (inactive) | 23.6 µM (inactive) |
| COc1ccc(/C=C/c2cnccn2)cc1OC | > 10 µM (inactive) | > 10 µM (inactive) | – | – | – | – | – | – | – |
| NC(=O)c1coc(C2OC(CO)C(O)C2O)n1 (stereo unspecified) | – | – | – | > 100 µM (inactive) | > 100 µM (inactive) | > 100 µM (inactive) | – | – | > 100 µM (inactive) |
| O=C(NC1C2CC3CC(C2)CC1C3)c1cc(/C=C/c2ccccc2)nc(S)n1 (stereo unspecified) | – | – | > 100 µM (inactive) | > 100 µM (inactive) | > 100 µM (inactive) | > 100 µM (inactive) | > 100 µM (inactive) | > 100 µM (inactive) | > 100 µM (inactive) |
| O=C(NC1C(O)C(O)C(CO)OC1n1cc(F)c(=O)[nH]c1=O)OCc1ccccc1 (stereo unspecified) | – | – | – | > 100 µM (inactive) | > 100 µM (inactive) | > 100 µM (inactive) | > 100 µM (inactive) | > 100 µM (inactive) | > 100 µM (inactive) |

| Structure (SMILES) | GI50 [1] | GI50 [2] | GI50 [3] | GI50 [4] | GI50 [5] | GI50 [6] | GI50 [7] | GI50 [8] | GI50 [9] |
| --- | --- | --- | --- | --- | --- | --- | --- | --- | --- |
| CCCCC(NC(=O)CC)C(=O)O (stereo unspecified) | – | – | > 100 µM (inactive) | > 100 µM (inactive) | > 100 µM (inactive) | > 100 µM (inactive) | > 100 µM (inactive) | – | > 100 µM (inactive) |
| COc1cc(C2c3cc4c(cc3OC(N3CCCCC3)C2C)OCO4)cc(OC)c1OC (stereo unspecified) | 3.49 µM (inactive) | 2.09 µM (inactive) | – | – | – | – | – | – | – |
| c1ccc2c(c1)SC1Sc3ccccc3[S+]21 (stereo unspecified) | 21.6 µM (inactive) | 64.9 µM (inactive) | – | – | – | – | – | – | – |
| COC(OC)[C@@H]1OC[C@@H](O)[C@@H]1n1cnc2c(N)ncnc21 | > 100 µM (inactive) | > 100 µM (inactive) | – | – | – | – | – | – | – |
| COc1ccc(OC)c2c3c(ccc12)C(c1ccccc1)OC3=O (stereo unspecified) | – | – | – | 51.8 µM (inactive) | 12.8 µM (inactive) | 31.9 µM (inactive) | 63.5 µM (inactive) | – | > 100 µM (inactive) |
| CCC1C(c2ccccc2O)c2cc3c(cc2OC1N1CCOCC1)OCO3 (stereo unspecified) | 14.8 µM (inactive) | 15.9 µM (inactive) | – | – | – | – | – | – | – |
| CCOC(=O)c1c2ccccc2n2c(=O)n(-c3ccccc3)nnc12 | > 100 µM (inactive) | > 100 µM (inactive) | – | – | – | – | – | – | – |
| CC(C)=CCc1c(OC(=O)c2c(C)cc(O)cc2O)cc(CO)c(CO)c1O | 25.1 µM (inactive) | 20.1 µM (inactive) | – | – | – | – | – | – | – |
| COc1cc2cc(C(=O)N3CC(CCl)c4c3cc([N+](C)(C)Cc3ccc([N+](=O)[O-])n3C)c3ccccc43)[nH]c2c(OC)c1OC (stereo unspecified) | 0.935 µM (active) | 6.76 µM (inactive) | – | – | – | – | – | – | – |
| CC(C)(C)[Si](C)(C)OC1CCOC1(O)c1ccccn1 (stereo unspecified) | > 100 µM (inactive) | > 100 µM (inactive) | – | – | – | – | – | – | – |
| O=C(O)C(C(=O)O)P(=S)(S)c1ccccc1 (stereo unspecified) | > 100 µM (inactive) | > 100 µM (inactive) | > 100 µM (inactive) | > 100 µM (inactive) | > 100 µM (inactive) | > 100 µM (inactive) | > 100 µM (inactive) | > 100 µM (inactive) | > 100 µM (inactive) |
| Nc1ncnc2c1ncn2C=C=CCO | > 100 µM (inactive) | > 100 µM (inactive) | – | – | – | – | – | – | – |
| COc1ccc(-c2nnc(-c3nsc4ccccc34)o2)cc1 | – | – | – | 58.1 µM (inactive) | > 100 µM (inactive) | 71.4 µM (inactive) | – | – | > 100 µM (inactive) |
| CCCCC1=C(Br)C(=C(Br)Br)OC1=O | – | – | 7.62 µM (inactive) | 2.07 µM (inactive) | 6.01 µM (inactive) | 2.74 µM (inactive) | 1.9 µM (inactive) | – | 8.65 µM (inactive) |
| Oc1cc(-c2ccccc2)nc2c(S)cccc12 | > 100 µM (inactive) | > 100 µM (inactive) | – | – | – | – | – | – | – |
| Cn1ccc(C(=O)NCCN(CCNC(=O)c2ccn(C)c(=O)c2O)CCNC(=O)c2ccn(C)c(=O)c2O)c(O)c1=O | > 100 µM (inactive) | > 100 µM (inactive) | – | – | – | – | – | – | – |
| O=c1[nH]c(=O)n([C@@H]2O[C@H](CO)[C@@H](O)[C@H]2O)cc1F [5-FLUOROURIDINE] | 0.151 µM (active) | 2.01 µM (inactive) | 1.92 µM (inactive) | 10.4 µM (inactive) | 0.211 µM (active) | 0.312 µM (active) | 0.0861 µM (active) | 1.05 µM (active) | 0.594 µM (active) |
| Cc1c2cc[n+](C)cc2c(C)c2c1[nH]c1ccc(O)cc12 [ELLIPTINIUM ACETATE] | 5.46 µM (inactive) | 0.387 µM (active) | – | 5.97 µM (inactive) | 61.9 µM (inactive) | 11.7 µM (inactive) | 57.7 µM (inactive) | – | > 100 µM (inactive) |
